Results published in patent US20220409617A1, “Drug Formulations and Methods of Treatment for Metabolic Disorders” (The Regents of the University of California, priority 2019, published 2022).
“Also recorded” adds a separate entry of the source.

Key:
A549 lung cancer cells = test: KRAS-mediated mitochondrial fission in A549 cells; assay type: cell-based, human; conditions: A549, oncogenic KRAS; 893 5 μM 1 h, leflunomide 50 μM 24 h
Experimental: 3T3-L1 cells were maintained in DMEM with 10% FBS and 1% penicillin-streptomycin until induced to differentiate. 3T3-L1 pre-adipocytes were differentiated as described in (M. P. Valley, et al., Anal. Biochem. 505: 43-50, 2016, the disclosure of which is incorporated herein by reference) with slight modifications. Briefly, pre-adipocytes were grown to confluence. After 2 d, cells were induced with maintenance media containing 500 μM IBMX (15879, Sigma-Aldrich, St. Louis, Mo.), 1 μM dexamethasone (D4902, Sigma-Aldrich), 5 μg/mL bovine insulin (10516, Sigma-Aldrich), and 5 μM troglitazone (50-115-0786, ApexBio). Media was changed every 2-3 d for 7 d. On day 7 post-induction, media was changed to maintenance media+5 μg/mL bovine insulin. On day 9 post-induction, media was changed to maintenance media. Mature adipocytes were used 12-14 d post-induction for all experiments. LSL-KrasG12D mouse embryonic fibroblasts (MEFs) with and without Cre-mediated deletion of the STOP cassette were obtained from David Tuveson (Cold Spring Harbor Laboratory, Cold Spring Harbor N.Y., USA) in 2000. p53^flox/flox MEFs were derived in house (2015) from C57BL/6 mice using standard techniques and immortalized by transient expression of Cre recombinase and deletion of p53. MEFs were cultured and maintained in DMEM with 10% FBS and 1% penicillin-streptomycin. A549 cells were cultured in DMEM with 10% FBS, 1% penicillin-streptomycin and 1% sodium pyruvate. Stock solution of palmitic acid (ACROS Organics, cat # AC129702500) was prepared at 100 mM in ethanol. Palmitate (250 μM) was conjugated to 1% (w/v) fatty-acid free bovine serum albumin (Sigma, A8806) in DMEM at 37° C. for 20 min. For all immunofluorescence assays, 8,000 MEFs were seeded into 8-chamber slides (Cellvis, cat # C8-1.5H-N) 12-16 h before treatment. Cells were pre-treated with sphingolipid-like compound 893 (5 μM in water), myriocin (10 μM in methanol), fumonisin-B1 (30 μM in DMSO), or celastrol (500 nM in DMSO) for 3 h followed by a 3 h treatment with BSA-conjugated palmitate mixture or BSA alone. […]
MEFs were washed twice with PBS and fixed with 4% paraformaldehyde for 10 min at RT. […] NADH/NADPH autofluorescence was detected with 740 nm excitation and 450±50 nm detectors using a Mai Tai two-photon laser. Fluorescence microscopy was performed on a Zeiss LSM 780 confocal using a 63× oil objective with a […] numerical aperture (NA) or using a Nikon TE2000-S inverted epifluorescence microscope with a 100× oil objective (1.3 NA) and a Photometrics CoolSNAP ES2 monochrome CCD camera. […]

[1] = test system: C16:0 ceramide generation (CerS6); test: C16:0 ceramide levels in palmitate-treated MEFs (UPLC-MS/MS); assay type: cell-based, mouse; conditions: MEFs; 3 h pre-treatment (893 5 μM, myriocin 10 μM, fumonisin B1 30 μM) then palmitate 250 μM 3 h
Experimental: Plasma pharmacokinetic analysis of sphingolipid-like compound 893 was performed by Pharmaron Corporation (Beijing, China). C16:0 ceramide levels were quantified in cells using the method described in (T. Kasumov, et al., Anal. Biochem. 401: 154-161, 2010, the disclosure of which is incorporated herein by reference) with minor modifications. Cultured cells were washed twice in PBS and scraped into 250 μL of HPLC grade water and flash frozen until time of analysis. On the day of analysis, samples were thawed, and an aliquot used for protein quantification. For C16:0 ceramide levels in mouse liver, 25 mg of tissue was homogenized in 1 ml of ice-cold PBS using a mechanical probe homogenizer (VWR, Radnor, Pa.), protein levels quantified, and 50 μl of the homogenate diluted with 150 μl HPLC-grade water for C16:0 ceramide analysis. Fifty ng of C17:0 ceramide prepared in ethanol (#22532, Cayman Chemical, Ann Arbor, Mich.) was added into 200 μL of the thawed cell suspension or liver homogenate as an internal standard to control for varying extraction efficiency; 750 μL of an ice-cold 1:2 chloroform/methanol mixture was then added. Samples were sonicated for 30 min and phase separation induced by the addition of 250 μL each of chloroform and HPLC-grade water. Samples were centrifuged at 4° C. for 10 min and the lower lipid phase transferred to a clean tube. The remaining protein and aqueous layers were re-extracted with an additional 500 μL of chloroform. Lipid phases were combined and then dried under vacuum. Dried extract was re-constituted in 100% acetonitrile immediately before analysis. Samples were analyzed by ultra-performance liquid chromatography tandem mass spectrometry (UPLC-MS/MS) using a Waters Micromass Quattro Premier XE equipped with a Waters ACQUITY BEH C4 column (Waters Corp.). Samples were resolved starting at 60% mobile phase A (10 mM ammonium acetate and 0.05% formic acid in water) to 98% mobile phase B (60:40 acetonitrile:isopropanol) over 3 min with a linear gradient, held at 98% B for 1 min, then the column was equilibrated with 60% A for 1 min. The mass spectrometer was operated in positive ion mode with the following parameters: cone voltage 20 V, source temperature 125° C., desolvation temperature 400° C. Ion transition channels for MS/MS were 538→264 for C16:0 ceramide and 552→264 for C17:0 ceramide, both with a dwell time of 285 ms. Standard curves prepared from C16:0 ceramide (#860516, Avanti Polar Lipids, Alabaster, Ala.) dissolved in ethanol were used for quantitation and were linear from 4.1 nM-1,000 nM, with an R^2 of 0.98 or greater.
3T3-L1 cells were maintained in DMEM with 10% FBS and 1% penicillin-streptomycin until induced to differentiate. […]

[2] = test system: mouse embryonic fibroblasts (MEFs); assay type: cell-based; conditions: 3 h pre-treatment then palmitate 250 μM 3 h, 893 5 μM, myriocin 10 μM, fumonisin B1 30 μM, NAV-2729 12.5 μM, YM201636 800 nM, celastrol 500 nM
Experimental: Mitochondrial morphology was assessed by examining citrate synthesis expression under a high resolution microscopy. Specifically, the aspect ratio, branch length and roundness of mitochondria was assessed (FIG. 1).
LSL-KrasG12D mouse embryonic fibroblasts (MEFs) with and without Cre-mediated deletion of the STOP cassette were obtained from David Tuveson (Cold Spring Harbor Laboratory, Cold Spring Harbor N.Y., USA) in 2000. p53^flox/flox MEFs were derived in house (2015) from C57BL/6 mice using standard techniques and immortalized by transient expression of Cre recombinase and deletion of p53. MEFs were cultured and maintained in DMEM with 10% FBS and 1% penicillin-streptomycin. […] Stock solution of palmitic acid (ACROS Organics, cat # AC129702500) was prepared at 100 mM in ethanol. Palmitate (250 μM) was conjugated to 1% (w/v) fatty-acid free bovine serum albumin (Sigma, A8806) in DMEM at 37° C. for 20 min. For all immunofluorescence assays, 8,000 MEFs were seeded into 8-chamber slides (Cellvis, cat # C8-1.5H-N) 12-16 h before treatment. Cells were pre-treated with sphingolipid-like compound 893 (5 μM in water), myriocin (10 μM in methanol), fumonisin-B1 (30 μM in DMSO), or celastrol (500 nM in DMSO) for 3 h followed by a 3 h treatment with BSA-conjugated palmitate mixture or BSA alone.

[3] = test system: mouse embryonic fibroblasts (MEFs); test: Ceramide-induced (C16:0 CER, C2-ceramide) mitochondrial fragmentation; assay type: cell-based; conditions: MEFs; C16:0 CER 100 μM or C2-ceramide 50 μM 3 h; 893 5 μM, mdivi-1 50 μM, M1 5 μM, leflunomide 50 μM, P110 1 μM
Experimental: 3T3-L1 cells were maintained in DMEM with 10% FBS and 1% penicillin-streptomycin until induced to differentiate. 3T3-L1 pre-adipocytes were differentiated as described in (M. P. Valley, et al., Anal. Biochem. 505: 43-50, 2016, the disclosure of which is incorporated herein by reference) with slight modifications. Briefly, pre-adipocytes were grown to confluence. After 2 d, cells were induced with maintenance media containing 500 μM IBMX (15879, Sigma-Aldrich, St. Louis, Mo.), 1 μM dexamethasone (D4902, Sigma-Aldrich), 5 μg/mL bovine insulin (10516, Sigma-Aldrich), and 5 μM troglitazone (50-115-0786, ApexBio). Media was changed every 2-3 d for 7 d. On day 7 post-induction, media was changed to maintenance media+5 μg/mL bovine insulin. On day 9 post-induction, media was changed to maintenance media. Mature adipocytes were used 12-14 d post-induction for all experiments. LSL-KrasG12D mouse embryonic fibroblasts (MEFs) with and without Cre-mediated deletion of the STOP cassette were obtained from David Tuveson (Cold Spring Harbor Laboratory, Cold Spring Harbor N.Y., USA) in 2000. p53^flox/flox MEFs were derived in house (2015) from C57BL/6 mice using standard techniques and immortalized by transient expression of Cre recombinase and deletion of p53. MEFs were cultured and maintained in DMEM with 10% FBS and 1% penicillin-streptomycin. A549 cells were cultured in DMEM with 10% FBS, 1% penicillin-streptomycin and 1% sodium pyruvate. Stock solution of palmitic acid (ACROS Organics, cat # AC129702500) was prepared at 100 mM in ethanol. Palmitate (250 μM) was conjugated to 1% (w/v) fatty-acid free bovine serum albumin (Sigma, A8806) in DMEM at 37° C. for 20 min. For all immunofluorescence assays, 8,000 MEFs were seeded into 8-chamber slides (Cellvis, cat # C8-1.5H-N) 12-16 h before treatment. Cells were pre-treated with sphingolipid-like compound 893 (5 μM in water), myriocin (10 μM in methanol), fumonisin-B1 (30 μM in DMSO), or celastrol (500 nM in DMSO) for 3 h followed by a 3 h treatment with BSA-conjugated palmitate mixture or BSA alone. Where cells were treated with C2-ceramide (50 μM in DMSO) or C16:0 ceramide (100 μM in ethanol) for 3 h, cells were pre-treated with sphingolipid-like compound 893 for 1-3 h as indicated, mdivi-1 (50 μM in DMSO) for 1 h or 24 h, M1 (5 μM in DMSO) for 24 h, mdivi-1 and M1 together for 24 h, leflunomide (50 μM in methanol) for 1 h or 24 h, or with P110 (1 μM in water) for 1 h or 12 h. LSL or KRAS^G12D MEFs were treated with sphingolipid-like compound 893 (5 μM) for 6 h prior to fixation.
MEFs were washed twice with PBS and fixed with 4% paraformaldehyde for 10 min at RT. Cells were permeabilized with 0.3% Triton X-100 in blocking buffer containing 10% fetal bovine serum for 20 min at 37° C. followed by overnight incubation with mouse anti-citrate synthase (sc-390693, Santa Cruz Biotechnology; dilution, 1:200) or rabbit-anti-DRP1 at 1:100 (#8570, Cell Signaling Technology) at 4° C. Cells were then washed twice with PBS and incubated with AlexaFluor 488 goat anti-mouse (A28175, Invitrogen) or AlexaFluor 594 donkey anti-rabbit (A32754, Invitrogen) secondary antibodies at RT followed by 5 min incubation with 1 μg/ml DAPI and 2 washes in PBS. For NADH autofluorescence studies, mice were gavaged with vehicle or 120 mg/kg sphingolipid-like compound 893 at ZT8.5 (4-10.5 h before sacrifice between ZT12.5 and ZT18). Post sacrifice, livers were excised, washed 3× with PBS, placed in DMEM supplemented with 10% FBS and 1% penicillin-streptomycin, and immediately imaged. NADH/NADPH autofluorescence was detected with 740 nm excitation and 450±50 nm detectors using a Mai Tai two-photon laser. Fluorescence microscopy was performed on a Zeiss LSM 780 confocal using a 63× oil objective with a […] numerical aperture (NA) or using a Nikon TE2000-S inverted epifluorescence microscope with a 100× oil objective (1.3 NA) and a Photometrics CoolSNAP ES2 monochrome CCD camera. […]

| Compound | Reversal of mitochondrial fragmentation / tubularity in A549 cells (A549 lung cancer cells) | Palmitate-induced C16:0 ceramide production [1] | Protection from palmitate-induced mitochondrial fragmentation (aspect ratio, branch length, roundness) [2] | Protection from ceramide-induced mitochondrial fragmentation [3] |
| --- | --- | --- | --- | --- |
| CCCC[C@@H](C)[C@@H](OC(=O)C[C@@H](CC(=O)O)C(=O)O)[C@H](C[C@@H](C)C[C@H](O)CCCC[C@@H](O)C[C@H](O)[C@H](C)N)OC(=O)C[C@@H](CC(=O)O)C(=O)O [fumonisin B1] | did not increase mitochondrial tubularity in A549 cells | Blocking ceramide production | prevented palmitate-induced morphological changes | – |
| CC(=NNc1c(Cl)cc(Cl)cc1Cl)c1cc(Cl)ccc1O [M1] | – | – | – | neither compound alone or in combination prevented ceramide- or KRAS-induced mitochondrial fragmentation |
| NAV-2729 | – | – | partial protection from palmitate-induced mitochondrial fragmentation | – |
| COc1cc(-n2c(=S)[nH]c3ccccc3c2=O)c(Cl)cc1Cl [mdivi-1] | – | – | – | failed to prevent C16:0 ceramide-induced mitochondrial fragmentation; also recorded: neither compound alone or in combination prevented ceramide- or KRAS-induced mitochondrial fragmentation |
| CCCCCCC(=O)CCCCCC/C=C/C[C@@H](O)[C@H](O)[C@@](N)(CO)C(=O)O [myriocin] | did not increase mitochondrial tubularity in A549 cells | Blocking ceramide production | prevented palmitate-induced morphological changes | – |
